# Results: patent US20210317134A1, “UBIQUITIN-SPECIFIC-PROCESSING PROTEASE 7 (USP7) MODULATORS AND USES THEREOF” (RAPT THERAPEUTICS, INC., priority 2019, published 2021)
# Biological target: USP7 (Homo sapiens, UniProt Q93009)
# Assay: USP7 inhibitory potency (Table 1)
# Format: biochemical
# Chain of USP7 (Q93009 whole entry): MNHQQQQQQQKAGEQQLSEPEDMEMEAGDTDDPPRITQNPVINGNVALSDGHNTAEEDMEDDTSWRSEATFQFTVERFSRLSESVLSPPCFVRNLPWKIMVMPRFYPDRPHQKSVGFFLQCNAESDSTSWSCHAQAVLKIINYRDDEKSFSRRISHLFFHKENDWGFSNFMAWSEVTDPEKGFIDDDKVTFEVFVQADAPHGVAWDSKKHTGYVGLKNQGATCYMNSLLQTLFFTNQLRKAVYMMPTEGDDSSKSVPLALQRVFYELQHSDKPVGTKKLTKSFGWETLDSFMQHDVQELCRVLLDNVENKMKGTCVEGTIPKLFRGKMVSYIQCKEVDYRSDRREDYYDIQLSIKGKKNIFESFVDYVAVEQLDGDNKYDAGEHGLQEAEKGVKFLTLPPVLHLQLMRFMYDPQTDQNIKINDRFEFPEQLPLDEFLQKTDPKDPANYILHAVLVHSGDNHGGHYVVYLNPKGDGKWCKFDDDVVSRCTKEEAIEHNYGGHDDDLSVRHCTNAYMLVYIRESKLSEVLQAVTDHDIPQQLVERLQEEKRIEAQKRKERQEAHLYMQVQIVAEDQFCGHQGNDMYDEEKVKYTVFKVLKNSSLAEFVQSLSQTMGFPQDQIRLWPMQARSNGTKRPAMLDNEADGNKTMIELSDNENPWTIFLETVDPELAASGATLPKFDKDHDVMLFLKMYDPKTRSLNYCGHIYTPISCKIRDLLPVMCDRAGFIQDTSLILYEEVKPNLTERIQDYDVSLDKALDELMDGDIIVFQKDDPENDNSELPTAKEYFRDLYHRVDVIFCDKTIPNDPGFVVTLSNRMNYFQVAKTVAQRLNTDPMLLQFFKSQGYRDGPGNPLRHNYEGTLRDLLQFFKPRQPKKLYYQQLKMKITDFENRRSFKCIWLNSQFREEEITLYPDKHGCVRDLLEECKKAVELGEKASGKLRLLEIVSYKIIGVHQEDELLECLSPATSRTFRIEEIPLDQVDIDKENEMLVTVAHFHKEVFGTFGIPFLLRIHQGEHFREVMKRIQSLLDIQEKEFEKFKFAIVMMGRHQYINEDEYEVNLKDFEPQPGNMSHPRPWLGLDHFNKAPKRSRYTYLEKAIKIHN
row,IC50,SMILES
1,1 to 10 µM,"CC(=O)NCC1Cc2nccc(-c3cc(Cl)cc4c3O[C@@H](C(=O)N3CCNCC3)C4)c2C1 (stereo partly drawn) [N-((4-((R)-5-chloro-2-(piperazine-1-carbonyl)-2,3-dihydrobenzofuran-7-yl)-6,7-dihydro-5H-cyclopenta[b]pyridin-6-yl)methyl)acetamide]"
2,1 to 10 µM,"CNC(=O)C1Cc2nccc(-c3cc(Cl)cc4c3O[C@@H](c3onc5c3CNCC5)C4)c2C1 (stereo partly drawn) [4-((R)-5-chloro-2-(4,5,6,7-tetrahydroisoxazolo[4,3-c]pyridin-3-yl)-2,3-dihydrobenzofuran-7-yl)-N-methyl-6,7-dihydro-5H-cyclopenta[b]pyridine-6-carboxamide]"
3,< 1 µM,"CCC(O)(C(=O)N(C)C)c1cc2nccc(-c3cc(Cl)cc4c3O[C@@H](C(=O)N3CCNCC3)C4)c2s1 (stereo partly drawn) [2-(7-((R)-5-chloro-2-(piperazine-1-carbonyl)-2,3-dihydrobenzofuran-7-yl)thieno[3,2-b]pyridin-2-yl)-2-hydroxy-N,N-dimethylbutanamide]"
4,< 1 µM,"COc1ccc(CN2C(=O)CN(Cc3cc4nccc(-c5cc(Cl)cc6c5O[C@@H](C(=O)N5CCNCC5)C6)c4s3)C2=O)cc1 [(R)-1-((7-(5-chloro-2-(piperazine-1-carbonyl)-2,3-dihydrobenzofuran-7-yl)thieno[3,2-b]pyridin-2-yl)methyl)-3-(4-methoxybenzyl)imidazolidine-2,4-dione]"
5,< 1 µM,"CN1CCC(=O)N(Cc2cc3nccc(-c4cc(Cl)cc5c4O[C@@H](C(=O)N4CCNCC4)C5)c3s2)C1=O [(R)-3-((7-(5-chloro-2-(piperazine-1-carbonyl)-2,3-dihydrobenzofuran-7-yl)thieno[3,2-b]pyridin-2-yl)methyl)-1-methyldihydropyrimidine-2,4(1H,3H)-dione]"
6,< 1 µM,"O=C([C@H]1Cc2cc(Cl)cc(-c3ccnc4cc(CN5C(=O)CNC5=O)sc34)c2O1)N1CCNCC1 [(R)-3-((7-(5-chloro-2-(piperazine-1-carbonyl)-2,3-dihydrobenzofuran-7-yl)thieno[3,2-b]pyridin-2-yl)methyl)imidazolidine-2,4-dione]"
7,10 to 30 µM,"Cc1ccc(S(=O)(=O)N2Cc3nccc(-c4cc(Cl)cc5c4O[C@@H](c4onc6c4CNCC6)C5)c3C2)cc1 [(R)-3-(5-chloro-7-(6-tosyl-6,7-dihydro-5H-pyrrolo[3,4-b]pyridin-4-yl)-2,3-dihydrobenzofuran-2-yl)-4,5,6,7-tetrahydroisoxazolo[4,3-c]pyridine]"
8,< 1 µM,"CCC(O)c1cc2nccc(-c3cc(Cl)cc4c3O[C@@H](c3onc5c3CNCC5)CC4)c2s1 (stereo partly drawn) [1-(7-((R)-6-chloro-2-(4,5,6,7-tetrahydroisoxazolo[4,3-c]pyridin-3-yl)chroman-8-yl)thieno[3,2-b]pyridin-2-yl)propan-1-ol]"
9,1 to 10 µM,C[C@H](O)Cc1cc2c(-c3cc(Cl)cc4c3OC(C(=O)N3CCNCC3)C4)ccnc2[nH]1 (stereo partly drawn)
10,10 to 30 µM,"Cc1cc(-c2cc(Cl)cc3c2OC(C(=O)N2CCNCC2)C3)ccn1 (stereo not drawn) [(5-Chloro-7-(2-methylpyridin-4-yl)-2,3-dihydrobenzofuran-2-yl)(piperazin-1-yl)methanone]"
11,< 1 µM,"CCC(O)c1cc2ncnc(-c3cc(Cl)cc4c3O[C@@H](c3onc5c3CNCC5)C4)c2s1 (stereo partly drawn) [drawing 1579, 1-(4-((R)-5-chloro-2-(4,5,6,7-tetrahydroisoxazolo[4,3-c]pyridin-3-yl)-2,3-dihydrobenzofuran-7-yl)thieno[3,2-d]pyrimidin-6-yl)propan-1-ol]"
12,< 1 µM,"N#Cc1cc2nccc(-c3cc(Cl)cc4c3O[C@@H](c3onc5c3CNCC5)C4)c2cc1F [(R)-4-(5-chloro-2-(4,5,6,7-tetrahydroisoxazolo[4,3-c]pyridin-3-yl)-2,3-dihydrobenzofuran-7-yl)-6-fluoroquinoline-7-carbonitrile]"
13,< 1 µM,"CCCC(O)c1cc2nccc(-c3cc(Cl)cc4c3O[C@@H](c3onc5c3CNCC5)C4)c2s1 (stereo partly drawn) [1-(7-((R)-5-chloro-2-(4,5,6,7-tetrahydroisoxazolo[4,3-c]pyridin-3-yl)-2,3-dihydrobenzofuran-7-yl)thieno[3,2-b]pyridin-2-yl)butan-1-ol]"
14,10 to 30 µM,"Clc1cc2c(c(-c3ncnc4c3CCC4)c1)O[C@@H](c1onc3c1CNCC3)C2 [(R)-3-(5-chloro-7-(6,7-dihydro-5H-cyclopenta[d]pyrimidin-4-yl)-2,3-dihydrobenzofuran-2-yl)-4,5,6,7-tetrahydroisoxazolo[4,3-c]pyridine]"
15,1 to 10 µM,"O=C([C@@H]1Cc2cc(Cl)cc(-c3ccnc4cc(CO)sc34)c2O1)N1CCNCC1 [(S)-(5-chloro-7-(2-(hydroxymethyl)thieno[3,2-b]pyridin-7-yl)-2,3-dihydrobenzofuran-2-yl)(piperazin-1-yl)methanone]"
16,1 to 10 µM,"CCC(O)(CC)C1Cc2nccc(-c3cc(Cl)cc4c3O[C@@H](c3onc5c3CNCC5)C4)c2C1 (stereo partly drawn) [3-(4-((R)-5-chloro-2-(4,5,6,7-tetrahydroisoxazolo[4,3-c]pyridin-3-yl)-2,3-dihydrobenzofuran-7-yl)-6,7-dihydro-5H-cyclopenta[b]pyridin-6-yl)pentan-3-ol]"
17,1 to 10 µM,"Cc1nnc2n1CCN(C(=O)[C@H]1Cc3cc(Cl)cc(-c4ccnc5cc(CO)sc45)c3O1)C2 [(R)-(5-chloro-7-(2-(hydroxymethyl)thieno[3,2-b]pyridin-7-yl)-2,3-dihydrobenzofuran-2-yl)(3-methyl-5,6-dihydro-[1,2,4]triazolo[4,3-a]pyrazin-7(8H)-yl)methanone]"

row,IC50,SMILES
1,< 1 µM,"CC(Cc1cc2nccc(-c3cc(Cl)cc4c3O[C@@H](C(=O)N3CCNCC3)C4)c2s1)NS(C)(=O)=O (stereo partly drawn) [N-(1-(7-((R)-5-chloro-2-(piperazine-1-carbonyl)-2,3-dihydrobenzofuran-7-yl)thieno[3,2-b]pyridin-2-yl)propan-2-yl)methanesulfonamide]"
2,< 1 µM,"Cn1nc2c(c1[C@H]1Cc3cc(Cl)cc(-c4ncnc5ccsc45)c3O1)CNCC2 [(R)-4-(5-chloro-2-(2-methyl-4,5,6,7-tetrahydro-2H-pyrazolo[4,3-c]pyridin-3-yl)-2,3-dihydrobenzofuran-7-yl)thieno[3,2-d]pyrimidine]"
3,10 to 30 µM,"COC(=O)c1ccc2c(-c3cc(Cl)cc4c3OC(C(=O)N3CCNCC3)C4)ccnc2c1 (stereo not drawn) [methyl 4-(5-chloro-2-(piperazine-1-carbonyl)-2,3-dihydrobenzofuran-7-yl)quinoline-7-carboxylate]"
4,10 to 30 µM,"O=C(C1Cc2cc(Cl)cc(-c3ccnc4[nH]c(C5CC5)cc34)c2O1)N1CCNCC1 (stereo not drawn) [(5-chloro-7-(2-cyclopropyl-1H-pyrrolo[2,3-b]pyridin-4-yl)-2,3-dihydrobenzofuran-2-yl)(piperazin-1-yl)methanone]"
5,1 to 10 µM,"Clc1cc2c(c(-c3ccnc4cc(Cl)ccc34)c1)O[C@@H](c1[nH]nc3c1CNCC3)C2 [(R)-7-chloro-4-(5-chloro-2-(4,5,6,7-tetrahydro-2H-pyrazolo[4,3-c]pyridin-3-yl)-2,3-dihydrobenzofuran-7-yl)quinoline]"
6,< 1 µM,"O=C(C1Cc2cc(Cl)cc(-c3ccnc4[nH]ccc34)c2O1)N1CCC(O)(c2ccncc2)CC1 (stereo not drawn) [(5-chloro-7-(1H-pyrrolo[2,3-b]pyridin-4-yl)-2,3-dihydrobenzofuran-2-yl)(4-hydroxy-4-(pyridin-4-yl)piperidin-1-yl)methanone]"
7,< 1 µM,"Clc1cc2c(c(-c3ccnc4cc(-c5cc[nH]n5)sc34)c1)O[C@@H](c1onc3c1CNCC3)C2 [(R)-3-(7-(2-(1H-pyrazol-3-yl)thieno[3,2-b]pyridin-7-yl)-5-chloro-2,3-dihydrobenzofuran-2-yl)-4,5,6,7-tetrahydroisoxazolo[4,3-c]pyridine]"
8,< 1 µM,"O=C(C1Cc2cc(Cl)cc(-c3ccnc4c3CCCC4)c2O1)N1CCNCC1 (stereo not drawn) [(5-chloro-7-(5,6,7,8-tetrahydroquinolin-4-yl)-2,3-dihydrobenzofuran-2-yl)(piperazin-1-yl)methanone]"
9,< 1 µM,"C[C@H]1CCN(Cc2cc3nccc(-c4cc(Cl)cc5c4O[C@@H](C(=O)N4CCNCC4)C5)c3s2)C1=O [(S)-1-((7-((R)-5-chloro-2-(piperazine-1-carbonyl)-2,3-dihydrobenzofuran-7-yl)thieno[3,2-b]pyridin-2-yl)methyl)-3-methylpyrrolidin-2-one]"
10,10 to 30 µM,"CN[C@@H]1CCCN(C(=O)[C@H]2Cc3cc(Cl)cc(-c4ccnc5ccsc45)c3O2)C1 [((R)-5-chloro-7-(thieno[3,2-b]pyridin-7-yl)-2,3-dihydrobenzofuran-2-yl)((R)-3-(methylamino)piperidin-1-yl)methanone]"
11,1 to 10 µM,"O=C(C1Cc2cc(Cl)cc(-c3ccnc4[nH]ccc34)c2O1)N1CCC(O)(c2ccccc2)CC1 (stereo not drawn) [(5-chloro-7-(1H-pyrrolo[2,3-b]pyridin-4-yl)-2,3-dihydrobenzofuran-2-yl)(4-hydroxy-4-phenylpiperidin-1-yl)methanone]"
12,< 1 µM,"O=C([C@H]1Cc2cc(Cl)cc(-c3ccnc4cc(N5C(=O)CCC5=O)ccc34)c2O1)N1CCNCC1 [(R)-1-(4-(5-chloro-2-(piperazine-1-carbonyl)-2,3-dihydrobenzofuran-7-yl)quinolin-7-yl)pyrrolidine-2,5-dione]"
13,< 1 µM,"CCC(O)c1cc2nccc(-c3cc(Cl)cc4c3O[C@@H](c3ocnc3CNC)C4)c2s1 (stereo partly drawn) [1-(7-((R)-5-chloro-2-(4-((methylamino)methyl)oxazol-5-yl)-2,3-dihydrobenzofuran-7-yl)thieno[3,2-b]pyridin-2-yl)propan-1-ol]"
14,1 to 10 µM,"CS(=O)(=O)c1ccc2c(-c3cc(Cl)cc4c3O[C@@H](c3onc5c3CNCC5)C4)ccnc2c1 [(R)-3-(5-chloro-7-(7-(methylsulfonyl)quinolin-4-yl)-2,3-dihydrobenzofuran-2-yl)-4,5,6,7-tetrahydroisoxazolo[4,3-c]pyridine]"
15,< 1 µM,"CCN1CCc2noc([C@H]3Cc4cc(Cl)cc(-c5ccnc6cc(CO)sc56)c4O3)c2C1 [(R)-(7-(5-chloro-2-(5-ethyl-4,5,6,7-tetrahydroisoxazolo[4,3-c]pyridin-3-yl)-2,3-dihydrobenzofuran-7-yl)thieno[3,2-b]pyridin-2-yl)methanol]"
16,< 1 µM,"Clc1cc2c(c(-c3ncnc4ccsc34)c1)O[C@@H](c1onc3c1CNCC3)C2 [(R)-3-(5-chloro-7-(thieno[3,2-d]pyrimidin-4-yl)-2,3-dihydrobenzofuran-2-yl)-4,5,6,7-tetrahydroisoxazolo[4,3-c]pyridine]"
